Laboratory results taken from US8367039B2, “Compounds for the diagnosis of diseases associated with VCAM expression” (Guerbet, priority 2007, dated 2013).

Target: T1, VCAM-1 (Mus musculus, UniProt P29533)
T1 construct: from tissue; host or cells: liver of Balb/c mice in vivo, Con-A-induced hepatitis
T1 sequence (P29533 25-739): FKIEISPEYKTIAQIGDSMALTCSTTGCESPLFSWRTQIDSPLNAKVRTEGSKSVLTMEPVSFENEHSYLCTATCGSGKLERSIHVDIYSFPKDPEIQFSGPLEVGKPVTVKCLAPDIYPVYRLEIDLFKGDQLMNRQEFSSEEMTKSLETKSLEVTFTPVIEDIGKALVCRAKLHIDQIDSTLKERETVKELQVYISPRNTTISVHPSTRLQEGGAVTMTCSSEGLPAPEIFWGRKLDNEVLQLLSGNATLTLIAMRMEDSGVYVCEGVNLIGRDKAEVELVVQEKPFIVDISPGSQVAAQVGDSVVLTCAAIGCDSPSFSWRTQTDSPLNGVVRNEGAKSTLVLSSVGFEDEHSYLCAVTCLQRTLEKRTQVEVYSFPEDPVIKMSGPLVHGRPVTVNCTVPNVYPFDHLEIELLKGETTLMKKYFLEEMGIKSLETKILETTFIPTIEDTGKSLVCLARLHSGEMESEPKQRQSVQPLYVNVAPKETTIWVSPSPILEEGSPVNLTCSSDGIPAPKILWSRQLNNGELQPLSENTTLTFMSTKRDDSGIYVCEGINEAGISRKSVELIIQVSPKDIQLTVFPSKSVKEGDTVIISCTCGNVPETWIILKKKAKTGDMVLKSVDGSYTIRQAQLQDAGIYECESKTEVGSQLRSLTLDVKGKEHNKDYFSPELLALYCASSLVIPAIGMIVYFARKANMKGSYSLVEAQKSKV
Assay: MRI in vivo on a model of Con-A-induced hepatitis in mice
Conditions: 100 μmol Gd/kg i.v., FIG. 3
Method: Before the MRI acquisition, the mice are anesthetized with pentobarbital. All the experiments are carried out on a 200 MHz Bruker spectrometer (4.7 T) equipped with a vertical magnet and with a microimaging system.
The hepatitis is induced by i.v. injection of 20 mg/kg of Con-A in Balb/c mice weighing approximately 26 g. The literature reports that VCAM-1 is massively expressed in the liver between 4 and 8 hours after the injection of Con-A. The MRI protocol is the following: (1) the precontrast MRI begins 4h30 after the injection of Con-A; (2) the contrast product is injected at the dose of 100 μmol Gd/kg approximately 5 h after the injection of Con-A; (3) several post-contrast acquisitions are carried out for 1 h30 every 7 minutes. […]
For the two models, the SI values are measured in various regions of interest (at the level of the arterial wall of the abdominal aorta or whole liver) using the OSIRIS image analysis software. […] The SI value is measured on all the image slices where the arterial wall and the liver are visible. […] The increase in the signal/noise ratio (% ΔSNR) is calculated according to the following equation: % ΔSNR=[(SIpost/SDnoise)−(SIpre/SDnoise)]/[SIpre/SDnoise]×100 where SDnoise is the standard deviation of the noise measured on a region outside the animal.

SMILES: O=C([O-])CN1CCN(CC(=O)[O-])CCN(CC(=O)O)CCN(CC(=O)[O-])CC1.[Gd+3] [Gd-DOTA]
- change in signal/noise ratio (% ΔSNR) of the liver over time, hepatitis versus healthy mouse: substantially identical
